Values quoted from earlier work, collected in patent US20070293529A1, “Tetrasubstituted ureas as modulators of 11-beta hydroxyl steroid dehydrogenase type 1” (priority 2006, published 2007).

Experiments:
11βHSD1 = target: T1, 11βHSD1 (Homo sapiens, UniProt P28845); settings: two randomized, double-blind, placebo-controlled crossover studies
T1 construct: host or cells: endogenous enzyme of the treated subjects (brain)

11βHSD1 in the eye = target: T2, 11βHSD1 in the eye (Homo sapiens, UniProt P28845); settings: healthy volunteers, after seven days of carbenoxolone treatment
T2 construct: host or cells: endogenous enzyme in the eye (NPE cells) of the treated volunteers

[1] = system: pancreatic islet cells of ob/ob mice
[2] = system: primary hippocampal cells

T2 sequence (P28845 whole entry): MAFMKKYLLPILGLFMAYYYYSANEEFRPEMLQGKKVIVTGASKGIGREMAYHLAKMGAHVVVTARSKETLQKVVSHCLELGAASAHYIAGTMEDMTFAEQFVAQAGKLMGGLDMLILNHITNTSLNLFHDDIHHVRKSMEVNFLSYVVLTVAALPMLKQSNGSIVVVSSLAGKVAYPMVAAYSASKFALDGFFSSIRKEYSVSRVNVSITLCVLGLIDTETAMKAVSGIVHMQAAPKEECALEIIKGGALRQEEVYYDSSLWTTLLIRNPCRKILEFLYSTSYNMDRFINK
T1 sequence (P28845 whole entry): as above

## CC1(C)[C@@H](OC(=O)CCC(=O)O)CC[C@]2(C)[C@H]3C(=O)C=C4[C@@H]5C[C@@](C)(C(=O)O)CC[C@]5(C)CC[C@@]4(C)[C@]3(C)CC[C@@H]12 [carbenoxolone]
Bone nodule formation
  negative effects of glucocorticoids on bone nodule formation: attenuate the negative effects of glucocorticoids on bone nodule formation
11βHSD1
  verbal fluency and verbal memory: improved verbal fluency and verbal memory
11βHSD1 in the eye
  reduction of intra-ocular pressure (IOP): 18%
[1]
  glucose-stimulated insulin release: improves glucose-stimulated insulin release
[2]
  protection from glucocorticoid-mediated exacerbation of excitatory amino acid neurotoxicity: protects the cells from glucocorticoid-mediated exacerbation of excitatory amino acid neurotoxicity
